Legend:
Experiment in all cases: drug sensitivity score (DSS3, normalised partial AUC of % inhibition dose-response) (DSS (score)); higher = more sensitive (stronger inhibition of viability); extreme values may be limits of the assay
Conditions in all cases: 72 h; library: FO5A; assay format: 2D, 384-well, CellTiter-Glo
FMOC02_3 = test system: FMOC02_3 (patient-derived low-grade serous ovarian cancer cells)
Outline: (§1)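 Early-passage (under 10) patient-derived ovarian cancer cells were dispensed onto 384-well flat clear-bottom plates pre-plated with compounds at five concentrations spanning a 10,000-fold range, then incubated 72 h at 37 °C, 5% CO2. Viability was read with CellTiter-Glo, and the data were processed in Breeze. The drug sensitivity score is a partial area under the percent-inhibition dose-response curve divided by the log of the upper asymptote, with higher values meaning greater sensitivity.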

FMOC09 = test system: FMOC09 (patient-derived high-grade serous ovarian cancer cells)
Outline: as §1

FMOC25_2 = test system: FMOC25_2 (patient-derived low-grade serous ovarian cancer cells)
Outline: as §1

FMOC06 = test system: FMOC06 (patient-derived mucinous ovarian cancer cells)
Outline: as §1

FMOC24 = test system: FMOC24 (patient-derived high-grade serous ovarian cancer cells)
Outline: as §1

FMOC02_2 = test system: FMOC02_2 (patient-derived low-grade serous ovarian cancer cells)
Outline: as §1

FMOC14 = test system: FMOC14 (patient-derived high-grade serous ovarian cancer cells)
Outline: as §1

FMOC03 = test system: FMOC03 (patient-derived mucinous ovarian cancer cells)
Outline: as §1

FMOC22 = test system: FMOC22 (patient-derived mucinous ovarian cancer cells)
Outline: as §1

SMILES	drug sensitivity score (FMOC02_3)	drug sensitivity score (FMOC09)	drug sensitivity score (FMOC25_2)	drug sensitivity score (FMOC06)	drug sensitivity score (FMOC24)	drug sensitivity score (FMOC02_2)	drug sensitivity score (FMOC14)	drug sensitivity score (FMOC03)	drug sensitivity score (FMOC22)
CC(C)(C)c1cc(NC(=O)Nc2ccc(Oc3ccnc4[nH]c(=O)cnc34)cc2F)n(-c2ccccc2)n1	7.1	3	17.8	3.6	1.6	0.2	0.1	5.3	3.8
CN(C)CC#Cc1ccc(OCCCc2sc(N3CCc4cccc(C(=O)Nc5nc6ccccc6s5)c4C3)nc2C(=O)O)c(F)c1	34	9.7	33.4	25.5	36.8	27.6	21.3	20.7	13.5
CN1CCN(C2CCC(n3cc(-c4ccc(Oc5ccccc5)cc4)c4c(N)ncnc43)CC2)CC1 (stereo not given)	20	19.1	9.9	8.3	9.1	19.8	7.3	9.1	5.5
CO[C@@H](C)Cn1c(=O)n(C)c2cnc3ccc(-c4cncc(C(C)(C)O)c4)cc3c21	17	7.4	15.7	11	7.6	15.3	8.3	9.2	9.1
COc1ccc2[nH]cc(/C=C3\C(=O)Nc4ccc(NC(=O)CCN5CCCCC5)cc43)c2c1	10.8	5.4	8.6	6.4	12.7	12.7	5.1	7.6	6.1
Cc1c(-c2ccc(N3CCc4cccc(C(=O)Nc5nc6ccccc6s5)c4C3)nc2C(=O)O)cnn1CC12CC3CC(CC(C3)C1)C2	26.7	3.1	24	16.8	23	14.5	8.8	12.5	5.7
Cc1sc2c(c1C)C(c1ccc(Cl)cc1)=N[C@@H](CC(=O)Nc1ccc(OCCOCCOCCOCCNc3cccc4c3C(=O)N(C3CCC(=O)NC3=O)C4=O)cc1)c1nnc(C)n1-2 (stereo not given in full) [ARV-825]	13	8.3	17.1	14.9	6	7.1	11.4	4	3.6
C=CCn1c(=O)c2cnc(Nc3ccc(N4CCN(C)CC4)cc3)nc2n1-c1cccc(C(C)(C)O)n1 [AZD1775]	17.5	7.9	15.2	8.5	8.15	10.8	14.6	6.1	6.9
Cc1[nH]nc(C(F)(F)F)c1Cc1sc2c(c1C(=O)N1C[C@](C)(O)CO1)c(=O)n(C)c(=O)n2C(C)C [AZD3965]	0.8	0	0	0	1.5	0	0	0	0
C[C@@H]1COCCN1c1cc(C2([S@](C)(=N)=O)CC2)nc(-c2cc[nH]c3nccc2-3)n1 [AZD6738]	11.1	7.7	12.5	6.9	8	7.8	10.7	5	7.4
CCN(CC)CCNC(=O)c1c(C)[nH]c(/C=C2\C(=O)Nc3ccc(-c4csc(-c5ccccc5)n4)cc32)c1C [Amcasertib]	0	0.3	0.1	0.5	8.9	1.6	0.1	1.2	2.7
O=C1CCc2c(Oc3ccc4c(c3)[C@@H]3[C@H](O4)[C@H]3c3nc4cc(C(F)(F)F)ccc4[nH]3)ccnc2N1 [BGB-283]	6.8	4.9	5.8	4.8	0.9	7.4	1	4.5	3.7
Cc1sc2c(c1C)C(c1ccc(Cl)cc1)=N[C@@H](CC(=O)Nc1ccc(O)cc1)c1nnc(C)n1-2 [Birabresib]	18.5	3.6	8.5	5.1	7.65	13.5	1.1	5.5	6.7
CCN1C(=O)CNc2ncc(-c3ccc(-c4nc[nH]n4)nc3C)nc21 [CC-115]	9.5	6.7	16	10.9	6.2	14.2	8.9	8	6.3
CO[C@H]1CC[C@H](N2C(=O)CNc3ncc(-c4ccc(C(C)(C)O)nc4)nc32)CC1 [CC-223]	9.2	3.5	8.6	5.1	2.4	8.6	3.5	4	3
Cc1noc2c1-c1ccccc1C(c1ccc(Cl)cc1)=N[C@H]2CC(N)=O [CPI-0610]	12.5	4.3	4	0.6	6.4	7.8	1.5	4.3	3.3
C[C@H]1O[C@@H](O[C@H]2[C@@H](O)C[C@H](O[C@H]3[C@@H](O)C[C@H](O[C@H]4CC[C@@]5(C)[C@H](CC[C@@H]6[C@@H]5C[C@@H](O)[C@]5(C)[C@@H](C7=CC(=O)OC7)CC[C@]65O)C4)O[C@@H]3C)O[C@@H]2C)C[C@H](O)[C@@H]1O [Digoxin]	14.4	14.3	18.3	10.7	17.1	11.1	10.3	9.6	9.7
Cc1ccc(NS(=O)(=O)c2cccc(C#N)c2)c2[nH]cc(C#N)c12 [E7820]	10.1	12.4	7.4	1.5	16.3	4.4	4.5	3.9	10.5

SMILES	drug sensitivity score (FMOC02_3)	drug sensitivity score (FMOC09)	drug sensitivity score (FMOC25_2)	drug sensitivity score (FMOC06)	drug sensitivity score (FMOC24)	drug sensitivity score (FMOC02_2)	drug sensitivity score (FMOC14)	drug sensitivity score (FMOC03)	drug sensitivity score (FMOC22)
NC(=O)/C(=C/n1cnc(-c2cc(C(F)(F)F)cc(C(F)(F)F)c2)n1)c1cncnc1 [Eltanexor]	24.5	13.3	23	23	23.7	16.2	12.4	12.5	16.5
COc1cccc2c1C(=O)c1c(O)c3c(c(O)c1C2=O)C[C@@](O)(C(=O)CO)C[C@@H]3O[C@H]1C[C@H](N)[C@@H](O)[C@H](C)O1 [Epirubicin]	7	5.2	8.2	4.2	4.8	3.9	3.8	4.3	5.7
CCOc1ccccc1-n1c(C(C)N2CCN(C(=O)COc3ccc(Cl)cc3)CC2)nc2ccccc2c1=O (stereo not given) [Erastin]	3.9	2.2	4.7	8	0.1	0.3	14.6	6.1	0.2
C=C1C[C@@H]2CC[C@@]34C[C@H]5O[C@H]6[C@@H](O3)[C@H]3O[C@H](CC[C@@H]3O[C@H]6[C@H]5O4)CC(=O)C[C@@H]3[C@@H](OC)[C@@H](C[C@H](O)CN)O[C@H]3C[C@H]3O[C@@H](CC[C@@H]1O2)C[C@@H](C)C3=C [Eribulin]	19.2	13.1	15.1	12.1	0.6	14.9	0	18	15.5
CC1(C)OCCn2c1nc1c(N3CCOCC3)nc(-c3cnc(N)nc3)nc12 [GDC-0084]	18.5	9.6	16.2	10.9	7.5	18.1	9.2	10.5	7.4
CC(C)C[C@H](NC(=O)CNC(=O)c1cc(Cl)ccc1Cl)B(O)O [Ixazomib]	6	6.8	14.5	12.1	16.8	14.3	15.3	15.1	16.6
CCNCCS(=O)(=O)NC[C@@]1(c2ccccc2)SC(NC(=O)C(C)(C)C)=NN1C(=O)C(C)(C)C [Litronesib]	11.6	6.8	13.5	0.7	0	4.9	0	7.9	9.2
CCCCCCCCCCCCCCCCOP(=O)([O-])OCC[N+](C)(C)C [Miltefosine]	6.9	8.4	5.1	9.1	9.8	5.5	8.7	5.6	10
CCS(=O)(=O)Nc1ccc(Oc2ccc(F)cc2F)c(-c2cn(C)c(=O)c3[nH]ccc23)c1 [Mivebresib]	30.3	10.9	16.4	16.6	17.6	20.3	11.7	13.9	11.7
CCNC(=O)C[C@@H]1N=C(c2ccc(Cl)cc2)c2cc(OC)ccc2-n2c(C)nnc21 [Molibresib]	10.2	2.1	5.6	3.6	5	6.9	1.7	3.4	3.1
COc1cc2c(cc1OC(C)C)[C@H](c1ccc(Cl)cc1)N(c1ccc(N(C)C[C@H]3CC[C@H](N4CCN(C)C(=O)C4)CC3)cc1)C(=O)C2 [NVP-CGM097]	18	5.9	13	5.5	8.6	12.2	6.3	5.9	6.9
CN[C@@H](C)C(=O)N[C@H](C(=O)N1CCC[C@H]1c1nc(C(=O)c2ccc(F)cc2)cs1)C1CCCCC1 [NVP-LCL161]	1.9	0	9.8	10.9	32.1	1.7	7.1	3.9	0.6
Cn1c(Nc2ccc(C(F)(F)F)cc2)nc2cc(Oc3ccnc(-c4ncc(C(F)(F)F)[nH]4)c3)ccc21 [NVP-RAF265]	12.7	0	6.6	0.8	2	8	1.6	2	1.6
CC(=O)c1cc2c(o1)C(=O)c1ccccc1C2=O [Napabucasin]	17.9	19.2	15	14.7	17.5	18.3	18.2	18.2	18.5
CC(=O)c1cnc2ccc(-c3cc(Cl)c(O)c(Cl)c3)nc2c1N[C@H]1CC[C@H](CN(C)C)CC1 [OTS167]	12.6	13.1	15.1	6.3	12.8	13.5	13	7.7	7.2
CC1(C)CC[C@]2(NC(=O)C(C)(F)F)CC[C@]3(C)[C@H](C(=O)C=C4[C@@]5(C)C=C(C#N)C(=O)C(C)(C)[C@@H]5CC[C@]43C)[C@@H]2C1 [Omaveloxolone]	10	14	13.9	15.8	9.7	9.3	11.6	18.7	15.9
Cn1nccc1Nc1nccc(-c2ccn([C@H](CO)c3ccc(Cl)c(F)c3)c(=O)c2)n1 [Ravoxertinib]	8.3	1.9	6.3	8.7	5.5	7.1	0	4.6	3.9

Reference: the supplement of paper PMC9938120
